According to patent US8685992B2, “Histone deacetylase inhibitors based simultaneously on trisubstituted 1H-pyrroles and aromatic and heteroaromatic spacers” (Universidad del País Vasco, priority 2009, dated 2014):

How the values were obtained:
Human HDAC3/NcoR2 = Human HDAC3/NcoR2 (Homo sapiens (Human), UniProt O15379); experiment: HDAC3 fluorogenic peptide deacetylation assay; assay type: biochemical; details: human HDAC3/NcoR2, 50 μM substrate, 30° C., 2 h; read-out: IC50 (nM) of enzyme activity HDAC3
Human HDAC4 = Human HDAC4 (Homo sapiens (Human), UniProt P56524); experiment: HDAC4 fluorogenic peptide deacetylation assay; assay type: biochemical; details: human HDAC4, 50 μM substrate, 30° C., 2 h; read-out: IC50 (nM) of enzyme activity HDAC4
Human HDAC5 = Human HDAC5 (Homo sapiens (Human), UniProt Q9UQL6); experiment: HDAC5 fluorogenic peptide deacetylation assay; assay type: biochemical; details: human HDAC5, 50 μM substrate, 30° C., 2 h; read-out: IC50 (nM) of enzyme activity HDAC5
Human HDAC8 = Human HDAC8 (Homo sapiens (Human), UniProt Q9BY41); experiment: HDAC8 fluorogenic peptide deacetylation assay; assay type: biochemical; details: human HDAC8, 50 μM substrate, 30° C., 2 h; read-out: IC50 (nM) of enzyme activity HDAC8
Human HDAC9 = Human HDAC9 (Homo sapiens (Human), UniProt Q9UKV0); experiment: HDAC9 fluorogenic peptide deacetylation assay; assay type: biochemical; details: human HDAC9, 50 μM substrate, 30° C., 2 h; read-out: IC50 (nM) of enzyme activity HDAC9
Human HDAC10 = Human HDAC10 (Homo sapiens (Human), UniProt Q969S8); experiment: HDAC10 fluorogenic peptide deacetylation assay; assay type: biochemical; details: human HDAC10, 50 μM substrate, 30° C., 2 h; read-out: IC50 (nM) of enzyme activity HDAC10
Human HDAC11 = Human HDAC11 (Homo sapiens (Human), UniProt Q96DB2); experiment: HDAC11 fluorogenic peptide deacetylation assay; assay type: biochemical; details: human HDAC11, 50 μM substrate, 30° C., 2 h; read-out: IC50 (nM) of enzyme activity HDAC11
[1] = tested on: Nuclear Extract from HeLa Cells; experiment: HeLa Nuclear Extract HDAC assay; assay type: biochemical, human; details: 50 μM substrate, 30° C., 2 h, read-out: IC50 (nM) of enzyme activity HeLa
BT474 = experiment: Cancer cell growth inhibition, BT474; assay type: cell-based; details: Homo sapiens, BT-474; BT474, Breast Cancer, 72 h treatment
Protocol: (§1) Cell culture-based assays were used to evaluate the ability of compounds of the invention to inhibit cancer cell growth inhibition.
(§2) Cells were obtained from the American Type Culture Collection (ATCC). Cells were cultured at 37° C. with 5% CO2 in the appropriate growth medium (see table below), and harvested respectively during the logarithmic growth period and counted with hemocytometer. The cell viability was over 98% by trypan blue exclusion. Cell concentrations were adjusted between 5×10^4 and 2×10^5 cells/ml with respective medium.
(§3) Stock solutions of test compounds and positive drugs Doxorubicin (Zhejiang, Haizheng, China), Paclitaxel (Beijing, Xiehe, China), Vincristin (Shenzhen Wanle, China), 5-FU (Tianjin jinyaoanjisuan, China), Irinotecan (Jiangsu Hengrui, China) and Cisplatin Nanjing zhiyao, China) were prepared in dimethyl sulphoxide (DMSO) or PBS at 20 mM.
(§4) All treatments were performed in triplicate. 10 μl drug solution was added to each well and incubated for 72 hours. At the end of the incubation, 20 μl of the freshly prepared MTS/PMS mixture solution was added to each well and incubated for 4 hours at 37° C. in a humidified, 5% CO2 atmosphere. Absorbance was read at 490 nm using SpectraMAX Plus microplate spectrophotometer. […] In order to calculate IC50, a dose-responsive curve was fitted using nonlinear regression model with a sigmoidal dose response.

MCF-7 = experiment: Cancer cell growth inhibition, MCF-7; assay type: cell-based, human; details: Homo sapiens, MCF7; MCF-7, Breast Cancer, 72 h treatment
Protocol: as §1, §2, §3, §4

MCF-7-218 = experiment: Cancer cell growth inhibition, MCF-7-218; assay type: cell-based; details: Homo sapiens; MCF-7-218, Breast Cancer, 72 h treatment
Protocol: as §1, §2, §3, §4

MDA-MB-231 = experiment: Cancer cell growth inhibition, MDA-MB-231; assay type: cell-based, human; details: Homo sapiens; MDA-MB-231, Breast Cancer, 72 h treatment
Protocol: as §1, §2, §3, §4

PC-3 = experiment: Cancer cell growth inhibition, PC-3; assay type: cell-based, human; details: Homo sapiens; PC-3, Prostate Cancer, 72 h treatment
Protocol: as §1, §2, §3, §4

HCT-116 = experiment: Cancer cell growth inhibition, HCT-116; assay type: cell-based, human; details: Homo sapiens; HCT-116, Colorectal Cancer, 72 h treatment
Protocol: as §1, §2, §3, §4

HT-29 = experiment: Cancer cell growth inhibition, HT-29; assay type: cell-based, human; details: Homo sapiens; HT-29, Colorectal Cancer, 72 h treatment
Protocol: as §1, §2, §3, §4

SW620 = experiment: Cancer cell growth inhibition, SW620; assay type: cell-based, human; details: Homo sapiens, SW-620; SW620, Colorectal Cancer, 72 h treatment
Protocol: as §1, §2, §3, §4

A549 = experiment: Cancer cell growth inhibition, A549; assay type: cell-based, human; details: Homo sapiens; A549, Lung Cancer, 72 h treatment
Protocol: as §1, §2, §3, §4

Calu-6 = experiment: Cancer cell growth inhibition, Calu-6; assay type: cell-based, human; details: Homo sapiens; Calu-6, Lung Cancer, 72 h treatment
Protocol: as §1, §2, §3, §4

NCI-H226 = experiment: Cancer cell growth inhibition, NCI-H226; assay type: cell-based, human; details: Homo sapiens; NCI-H226, Lung Cancer, 72 h treatment
Protocol: as §1, §2, §3, §4

SK-MES-1 = experiment: Cancer cell growth inhibition, SK-MES-1; assay type: cell-based, human; details: Homo sapiens; SK-MES-1, Lung Cancer, 72 h treatment
Protocol: as §1, §2, §3, §4

MIAPACA-2 = experiment: Cancer cell growth inhibition, MIAPACA-2; assay type: cell-based, human; details: Homo sapiens, MIA PaCa-2; MIAPACA-2, Pancreatic Cancer, 72 h treatment
Protocol: as §1, §2, §3, §4

Bx-PC-3 = experiment: Cancer cell growth inhibition, Bx-PC-3; assay type: cell-based, human; details: Homo sapiens, BXPC-3; Bx-PC-3, Pancreatic Cancer, 72 h treatment
Protocol: as §1, §2, §3, §4

PANC-1 = experiment: Cancer cell growth inhibition, PANC-1; assay type: cell-based, human; details: Homo sapiens; PANC-1, Pancreatic Cancer, 72 h treatment
Protocol: as §1, §2, §3, §4

HepG2 = experiment: Cancer cell growth inhibition, HepG2; assay type: cell-based, human; details: Homo sapiens; HepG2, Liver Cancer, 72 h treatment
Protocol: as §1, §2, §3, §4

143b = experiment: Cancer cell growth inhibition, 143b; assay type: cell-based; details: Homo sapiens, Osteosarcoma, 72 h treatment
Protocol: as §1, §2, §3, §4

CNE2 = experiment: Cancer cell growth inhibition, CNE2; assay type: cell-based, human; details: Homo sapiens, CNE-2; CNE2, Nasopharyngeal Cancer, 72 h treatment
Protocol: as §1, §2, §3, §4

BGC823 = experiment: Cancer cell growth inhibition, BGC823; assay type: cell-based, human; details: Homo sapiens, BGC-823; BGC823, Gastric Cancer, 72 h treatment
Protocol: as §1, §2, §3, §4

Human HDAC3/NcoR2, sequence (O15379 whole entry): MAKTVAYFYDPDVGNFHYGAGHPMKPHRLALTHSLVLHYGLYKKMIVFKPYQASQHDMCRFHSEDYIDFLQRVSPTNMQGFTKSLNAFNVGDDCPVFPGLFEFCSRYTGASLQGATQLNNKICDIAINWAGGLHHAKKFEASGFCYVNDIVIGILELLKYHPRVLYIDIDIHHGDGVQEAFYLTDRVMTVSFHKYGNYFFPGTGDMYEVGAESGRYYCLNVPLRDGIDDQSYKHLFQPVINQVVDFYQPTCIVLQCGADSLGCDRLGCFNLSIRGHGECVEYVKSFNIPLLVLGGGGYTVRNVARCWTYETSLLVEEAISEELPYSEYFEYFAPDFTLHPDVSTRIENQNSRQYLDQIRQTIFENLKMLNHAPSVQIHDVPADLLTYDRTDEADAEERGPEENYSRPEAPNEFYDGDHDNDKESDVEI
Human HDAC3/NcoR2, sequence (Q9Y618 395-489 partner): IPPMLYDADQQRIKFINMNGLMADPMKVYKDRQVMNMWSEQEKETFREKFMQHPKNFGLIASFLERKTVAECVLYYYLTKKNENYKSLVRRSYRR
Human HDAC4, sequence (P56524 627-1084 limits assumed): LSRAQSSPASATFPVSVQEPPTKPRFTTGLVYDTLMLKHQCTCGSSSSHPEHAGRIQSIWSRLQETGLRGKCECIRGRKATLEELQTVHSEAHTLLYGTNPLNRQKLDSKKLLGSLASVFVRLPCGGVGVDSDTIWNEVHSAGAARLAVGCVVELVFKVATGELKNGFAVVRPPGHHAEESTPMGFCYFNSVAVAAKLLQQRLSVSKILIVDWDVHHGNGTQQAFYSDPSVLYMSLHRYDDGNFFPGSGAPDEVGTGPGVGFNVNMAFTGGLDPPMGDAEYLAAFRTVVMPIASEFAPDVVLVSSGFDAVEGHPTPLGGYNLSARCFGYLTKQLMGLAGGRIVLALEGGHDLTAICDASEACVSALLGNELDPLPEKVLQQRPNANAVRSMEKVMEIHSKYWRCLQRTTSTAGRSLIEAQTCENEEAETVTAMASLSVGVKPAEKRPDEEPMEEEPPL
Human HDAC5, sequence (Q9UQL6 other isoform, or with tags, fused parts or gaps): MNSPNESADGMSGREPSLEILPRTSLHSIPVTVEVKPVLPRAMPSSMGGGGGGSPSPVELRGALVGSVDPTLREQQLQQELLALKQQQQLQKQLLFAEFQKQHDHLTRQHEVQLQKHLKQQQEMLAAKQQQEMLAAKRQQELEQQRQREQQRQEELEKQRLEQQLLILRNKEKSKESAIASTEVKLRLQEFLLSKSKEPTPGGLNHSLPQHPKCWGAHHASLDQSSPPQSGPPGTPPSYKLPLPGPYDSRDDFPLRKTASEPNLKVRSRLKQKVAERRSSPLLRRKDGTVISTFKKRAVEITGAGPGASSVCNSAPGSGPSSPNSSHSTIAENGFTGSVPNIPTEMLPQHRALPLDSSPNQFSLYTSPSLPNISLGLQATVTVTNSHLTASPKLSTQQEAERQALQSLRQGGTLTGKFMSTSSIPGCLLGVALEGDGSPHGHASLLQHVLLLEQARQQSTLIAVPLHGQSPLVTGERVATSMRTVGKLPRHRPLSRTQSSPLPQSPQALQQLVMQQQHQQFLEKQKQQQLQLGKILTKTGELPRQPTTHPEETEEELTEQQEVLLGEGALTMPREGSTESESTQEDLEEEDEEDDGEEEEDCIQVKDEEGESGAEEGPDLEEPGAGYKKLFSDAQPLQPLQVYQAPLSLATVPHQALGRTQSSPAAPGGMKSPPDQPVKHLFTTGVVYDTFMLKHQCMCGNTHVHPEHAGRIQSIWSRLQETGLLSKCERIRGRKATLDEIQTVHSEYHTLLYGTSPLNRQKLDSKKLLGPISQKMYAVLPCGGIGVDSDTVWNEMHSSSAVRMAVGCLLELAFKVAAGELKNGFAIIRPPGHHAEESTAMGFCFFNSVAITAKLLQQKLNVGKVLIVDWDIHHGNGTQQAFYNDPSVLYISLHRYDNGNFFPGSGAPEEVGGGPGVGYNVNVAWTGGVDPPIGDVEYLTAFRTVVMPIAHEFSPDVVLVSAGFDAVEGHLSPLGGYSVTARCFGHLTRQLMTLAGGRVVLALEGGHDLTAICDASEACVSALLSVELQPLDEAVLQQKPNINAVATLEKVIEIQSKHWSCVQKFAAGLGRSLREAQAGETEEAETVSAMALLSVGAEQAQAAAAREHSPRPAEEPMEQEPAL
Human HDAC11, sequence (Q96DB2 whole entry): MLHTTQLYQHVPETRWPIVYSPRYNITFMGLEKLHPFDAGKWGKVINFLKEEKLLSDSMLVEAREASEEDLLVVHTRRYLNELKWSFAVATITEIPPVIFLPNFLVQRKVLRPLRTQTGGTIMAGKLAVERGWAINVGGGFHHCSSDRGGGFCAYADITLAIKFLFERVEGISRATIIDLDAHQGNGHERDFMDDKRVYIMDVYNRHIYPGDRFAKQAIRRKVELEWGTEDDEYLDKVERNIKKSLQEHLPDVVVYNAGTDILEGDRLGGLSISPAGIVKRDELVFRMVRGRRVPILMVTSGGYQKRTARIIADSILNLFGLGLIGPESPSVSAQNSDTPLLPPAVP
Human HDAC9, sequence (Q9UKV0 other isoform, or with tags, fused parts or gaps): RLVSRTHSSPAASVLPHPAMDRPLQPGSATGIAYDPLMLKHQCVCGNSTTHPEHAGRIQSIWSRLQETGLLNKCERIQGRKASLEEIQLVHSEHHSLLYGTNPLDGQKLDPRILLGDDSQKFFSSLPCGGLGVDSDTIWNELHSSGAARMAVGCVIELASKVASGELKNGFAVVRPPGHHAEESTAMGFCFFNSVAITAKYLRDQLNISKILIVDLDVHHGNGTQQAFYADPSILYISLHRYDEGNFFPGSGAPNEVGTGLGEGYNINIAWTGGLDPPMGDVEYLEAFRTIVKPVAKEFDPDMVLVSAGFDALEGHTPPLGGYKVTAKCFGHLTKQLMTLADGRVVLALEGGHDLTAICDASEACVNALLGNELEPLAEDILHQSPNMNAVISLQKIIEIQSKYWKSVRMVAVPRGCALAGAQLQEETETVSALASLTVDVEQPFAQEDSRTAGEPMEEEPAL
Human HDAC8, sequence (Q9BY41 whole entry): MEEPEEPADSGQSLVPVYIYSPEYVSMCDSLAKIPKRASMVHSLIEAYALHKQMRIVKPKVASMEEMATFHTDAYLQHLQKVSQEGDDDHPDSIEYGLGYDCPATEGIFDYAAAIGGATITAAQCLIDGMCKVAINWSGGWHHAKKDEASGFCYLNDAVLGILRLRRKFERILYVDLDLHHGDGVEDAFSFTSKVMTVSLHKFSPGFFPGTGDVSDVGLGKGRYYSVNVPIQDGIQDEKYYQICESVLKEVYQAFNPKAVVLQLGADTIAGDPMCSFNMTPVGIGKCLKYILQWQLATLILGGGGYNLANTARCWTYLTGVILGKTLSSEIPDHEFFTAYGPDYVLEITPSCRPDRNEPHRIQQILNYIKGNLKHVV
Human HDAC10, sequence (Q969S8 1-631): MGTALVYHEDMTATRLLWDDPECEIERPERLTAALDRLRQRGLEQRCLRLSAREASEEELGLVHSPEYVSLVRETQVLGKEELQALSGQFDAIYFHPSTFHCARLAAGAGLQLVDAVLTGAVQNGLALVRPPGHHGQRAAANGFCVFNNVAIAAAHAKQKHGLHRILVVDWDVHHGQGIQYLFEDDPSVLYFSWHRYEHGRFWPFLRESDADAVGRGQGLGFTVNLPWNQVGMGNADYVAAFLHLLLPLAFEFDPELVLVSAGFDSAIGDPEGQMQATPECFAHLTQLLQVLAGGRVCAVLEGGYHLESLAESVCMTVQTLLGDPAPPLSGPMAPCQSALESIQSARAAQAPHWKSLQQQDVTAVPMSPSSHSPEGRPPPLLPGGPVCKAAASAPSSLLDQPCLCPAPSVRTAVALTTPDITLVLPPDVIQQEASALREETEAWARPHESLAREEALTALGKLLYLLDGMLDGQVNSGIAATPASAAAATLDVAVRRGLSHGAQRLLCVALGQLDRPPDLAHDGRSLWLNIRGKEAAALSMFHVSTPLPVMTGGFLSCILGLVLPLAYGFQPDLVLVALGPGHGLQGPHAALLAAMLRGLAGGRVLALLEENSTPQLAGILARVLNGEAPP

Which results are given for `O=C(NO)c1ccc(CNC(=O)c2[nH]c(-c3ccc(O)cc3)cc2-c2ccsc2)cc1` [Example 14, N-{4-[(hydroxyamino)carbonyl]benzyl}-5-(4-hydroxyphenyl)-3-(3-thienyl)-1H-pyrrole-2-carboxamide]?
IC50 (Human HDAC3/NcoR2): 124 nM; IC50 (Human HDAC4): 956 nM; IC50 (Human HDAC5): 172 nM; IC50 (Human HDAC8): 64.1 nM; IC50 (Human HDAC9): 277 nM; IC50 (Human HDAC10): 316 nM; IC50 (Human HDAC11): 319 nM; IC50 [1]: 6.7 nM; IC50 (BT474): 1630 nM; IC50 (MCF-7): 10100 nM; IC50 (MCF-7-218): 37600 nM; IC50 (MDA-MB-231): 4070 nM; IC50 (PC-3): 2400 nM; IC50 (HCT-116): 80.4 nM; IC50 (HT-29): 5780 nM; IC50 (SW620): 1530 nM; IC50 (A549): 11000 nM; IC50 (Calu-6): 4070 nM; IC50 (NCI-H226): 21300 nM; IC50 (SK-MES-1): 18500 nM; IC50 (MIAPACA-2): 428 nM; IC50 (Bx-PC-3): 6830 nM; IC50 (PANC-1): 9840 nM; IC50 (HepG2): 2010 nM; IC50 (143b): 2620 nM; IC50 (CNE2): 11400 nM; IC50 (BGC823): 13700 nM
